Measurements taken from US11857570B2, “Natural composition for use in gynecology” (Organicare LLC, priority 2017, dated 2024).

Tests used:
[1] = test system: transformed human vaginal epithelial cells (Episkin); experiment: Cell survival test (MTT) with three-dimensional vaginal epithelium reconstructed in vitro; type: cell-based
Description: The potential skin irritation on the vaginal epithelium was evaluated in vitro by means of a cytotoxicity assay: cell survival test with three-dimensional vaginal epithelium reconstructed in vitro (MTT test). The three-dimensional cell model used in the test consists of 0.5 cm^2 diameter units of cultures of transformed human vaginal epithelial cells, maintained for 5 days in a chemically defined culture medium and in contact with air on inert polycarbonate filters. The model was purchased from Episkin® (Lyons, lot 16-HVE-015).
Sodium lauryl sulphate (SLS) dissolved at 0.5% by weight in a phosphate buffer (Euroclone) was used as a positive control. The phosphate buffer was used on its own as a negative control. Exposure took place for 1 and 6 hours at about 37° C., 5% CO2. At the end of exposure, the epithelium was washed with phosphate buffer. The epithelium was incubated for 3 h at 37° C. with a 1 mg/ml solution of MTT (3-[4,5-dimethylthiazol-2-yl]-2,5-diphenyltetrazoliumbromide).
The solution was subsequently removed and replaced with isopropanol, with […]
successive hours of incubation at room temperature. 2 aliquots of each epithelium were transferred into a 96-well plate for the absorbance reading, which was carried out at a wavelength of 570 nm with a Tecan Sunrise remote colorimeter, equipped with a plate reader.
Through the creation of a dose-response curve, the cytotoxicity data obtained with the MTT test (Table 5) make it possible to determine the theoretical value of ET50, that is, the time in minutes that induces a 50% reduction in cell viability in the epithelium compared to untreatedcells.

bacterial vaginosis = conditions: at 3 months; cited from earlier work

| SMILES | % mean cell viability 1 h treatment ([1]; MTT, 1 h exposure, reconstructed human vaginal epithelium) | % mean cell viability 6 h treatment ([1]; MTT, 6 h exposure, reconstructed human vaginal epithelium) | ET50 ([1]; time that induces a 50% reduction in cell viability compared to untreated cells) | risk of relapse (bacterial vaginosis) |
| --- | --- | --- | --- | --- |
| CCCCCCCCCCCCOS(=O)(=O)[O-].[Na+] [Positive control, Sodium lauryl sulphate] | 8.26% | 6.54% | 32.70 min |  |
| Cc1ncc([N+](=O)[O-])n1CCO [metronidazole] |  |  |  | 33 % of women |
